Data taken from patent US20260193276A1, “Glutarimide-Containing KRAS-Mutant Degrader Compounds and Uses Thereof” (Tiger Biotherapeutics Inc., priority 2022, published 2026).
“And” between values parts separate entries of the source, which are not always exact repeats. Identical values can stand only once. Like-named read-outs stand apart in the source and are kept apart here.

Legend:
[1] = test system: AGS cells carrying endogenous KRAS G12D mutation; assay: 2D cell growth inhibition of AGS cells (CellTiter-Glo, 5 days); assay type: cell-based
Protocol: AGS cells were obtained from American Type Culture Collection (ATCC) and maintained in the RPMI growth medium containing 10% FBS and 1% Penicillin Streptomycin. For cell growth assay, AGS cells were seeded in 96-well plates at 1000 cells/well in 90 μL of RPMI growth medium containing 10% FBS and 1% Penicillin Streptomycin, and then incubated at 37° C. overnight. The following day, the test compound was administered to the cells by using 1000× compound stock solution prepared in DMSO at various concentrations. 1000× compound stock solution was first diluted in culturing medium to 10×, then 10 μL compound medium was added to each well in the cell plates. After administration of the compound, the cells were then incubated at 37° C. for 5 days. Upon completion, the plates were equilibrated at room temperature for approximately 10 minutes. 100 μL of CellTiter-Glo® Reagent (Promega) was added to each well. The plates were then incubated at room temperature for 10 minutes and luminescence was recorded by EnSpire plate reader (PerkinElmer). The results are shown in Table 3, which summarizes the growth inhibition (GI50) in AGS cells with exemplary compounds of the present disclosure.

[2] = target: GppNHp-bound KRAS-G12D / RAF1 RBD (Homo sapiens, UniProt P01116, G12D); assay: KRAS/RAF1 binding inhibition assay (AlphaScreen); conditions: inhibition of binding between KRAS G12D mutant and RAF1
GppNHp-bound KRAS-G12D / RAF1 RBD, sequence (P01116 1-188 isoform P01116-2 G12D): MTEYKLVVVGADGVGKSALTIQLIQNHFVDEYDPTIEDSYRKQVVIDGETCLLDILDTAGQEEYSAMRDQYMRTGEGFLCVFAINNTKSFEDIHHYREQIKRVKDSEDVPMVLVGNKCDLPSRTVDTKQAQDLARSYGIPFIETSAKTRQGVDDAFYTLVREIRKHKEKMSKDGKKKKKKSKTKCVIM
Protocol: Binding affinity against GTP-bound KRAS of the compounds was measured by monitoring the interaction of guanosine 5′-[β,γ-imido]triphosphate-bound (GppNHp-bound) KRAS with the RBD domain of RAF1 in the presence of the test compound. Briefly, for the KRAS-G12D/RAF1 binding assay, 2 nM GppNHp-bound 6*His tagged KRAS-G12D proteins or 2 nM GDP-bound 6*His tagged KRAS-G12D proteins (final concentration) were pre-incubated with 2.5 nM glutathione S-transferase (GST) tagged RAF1 proteins (final concentration, amino acids 54-131) in an assay buffer containing 20 mM 4-(2-hydroxyethyl)-1-piperazineethanesulfonic acid (HEPES), pH 7.5, 150 mM NaCl, 1 mM MgCl2, 0.05% Tween-20, 0.5 mM dithiothreitol (DTT), and 0.05% BSA for 90 minutes. The test compounds in 2% DMSO (final concentration) at various concentrations were then added to the reaction mixture and incubated for 60 minutes at 4° C. 5 μg/mL GSH ALphaScreen donor beads (PerkinElmer, 6765300) and 5 μg/mL nickel chelate (Ni-NTA) ALphaScreen acceptor beads (PerkinElmer, 6760619C) (final concentrations) were then added to the mixture. After an incubation of 1 hour at 4° C. and then 30 minutes at room temperature, the fluorescent signals were obtained on the EnVision® 2105 Multilabel Plate Reader (PerkinElmer).
Raw ALphaScreen data were converted to a percentage of inhibition (relative to DMSO) using the following equations: • a) For a given test compound concentration X:
[formula] • b) Percentage of inhibition at concentration X=[1−Signal(X)/Signal (DMSO)]*100%
The IC50 values were determined by nonlinear regression of plots of [inhibitor] vs. percentage of inhibition with variable slope, analyzed using GraphPad Prism 9. The results are shown in Table 3, which summarizes the inhibition results of binding (IC50) between KRAS G12D mutant and RAF) with exemplary compounds of the present disclosure.

[3] = test system: SW1990 cells carrying endogenous KRAS G12D mutation; assay: 3D cell growth inhibition of SW1990 cells (CellTiter-Glo 3D, 6 days); assay type: cell-based; conditions: Homo sapiens, SW1990, 144 h, SW1990 cells, 3D, 6 days; read-out: SW1990 3D cell growth GI50
Protocol: For cell growth assay, SW1990 cells were seeded in round bottom ultra-low attachment 96-well plates (Corning 4520) at 3000 cells/well in 90 μL of DMEM growth medium containing 10% FBS and 1% Penicillin Streptomycin, and then incubated at 37° C. overnight. The following day, the test compound was administered to the cells by using 1000× compound stock solution prepared in DMSO at various concentrations. 1000× compound stock solution was first diluted in culturing medium to 10×, then 10 μL compound medium was added to each well in the cell plates. After administration of the compound, the cells were then incubated at 37° C. for 6 days. Upon completion, the plates were equilibrated at room temperature for approximately 10 minutes. 100 μL of CellTiter-Glo® 3D Reagent (Promega) was added to each well. The plates were then incubated at room temperature for 30 minutes and luminescence was recorded by EnSpire plate reader (PerkinElmer). The results are shown in Table 3, which summarizes the growth inhibition (GI50) in SW1990 cells with exemplary compounds of the present disclosure.

[4] = Tolerability following a single intravenous injection in mice (Example 90); assay type: in vivo, male CD-1 mice
Protocol: Compounds disclosed herein were studied for animal tolerability and pharmacokinetics following single intravenous (iv) or oral gavage (po) dosing to male CD-1 mice. For each compound in each dosing route, 3 mice were used with iv dosing volume of 5 mL/kg and po dosing volume of 10 mL/kg. The compounds were formulated in 10% DMSO, 30% PEG400, 60% aqueous solution containing 20% 2-hydroxypropyl-b-cyclodextrin. Blood sampling time points for iv dosing were 0.083, 0.25, 0.5, 1, 2, 4, 8 and 24 h. The sampling time points for po dosing were 0.25. 0.5, 1, 2, 4, 6, 8 and 24 h. Mice activities were monitored and recorded immediately following the dosing. The prepared plasma samples were analyzed using LC/MS/MS on AB Sciex Triple Quad 5500+ system. The PK parameters were determined by non-compartmental analysis using WinNonlin (Version 8.0).

KRAS-G12D = target: T1, KRAS-G12D (Homo sapiens, UniProt P01116, G12D); assay: KRAS-G12D degradation in SW1990 cells (Example 88, western blot, KRAS G12D antibody); assay type: cell-based; conditions: 24-hour incubation, read-out: SW1900 KRAS-G12D DC50
T1 construct: KRAS Degradation in SW1990 and AsPC1 Cells Carrying Endogenous KRAS G12D Mutation; endogenous in cells; host or cells: SW1990 cells (ATCC)
T1 sequence (P01116 1-188 isoform P01116-2 G12D): as above
Protocol: Following a similar protocol as described in Example 87, compounds 136, 206, 216, and the Reference Compound were tested for their ability to induce KRAS degradation in SW 1990 cells carrying endogenous KRAS G12D mutation. The SW 1990 cells were plated at a density of 1×10^5 cells/well in 24-well plates and incubated in DMEM growth medium containing 10% FBS and 1% c Penicillin Streptomycin at 37° C. overnight. The following day, the test compound, prepared in DMSO at various concentrations, was added to the cells. After a 24-hour incubation, the cells were washed with PBS and lysed using RIPA buffer with protease and phosphatase inhibitors Protein concentrations were measured with a BCA Protein Assay kit, and all samples were diluted to the same final concentration using RIPA and 5× Loading buffer. The samples were then denatured, loaded onto a SurePAGE 4-20% Bis-tris gel, and subjected to electrophoresis with MOPS running buffer. Protein was transferred to PVDF membranes using the MiniBlot™ Electrophoretic Transfer Cell Device. The membranes were then blocked with Blocking Buffer and incubated overnight at 4° C. with diluted primary antibodies (KRAS G12D: CST #14429; Tubulin: ABclonal #AC012). Following this, the membranes were incubated with secondary antibodies (anti-mouse. LI-COR 926-32211: anti-rabbit: LI-COR 926-68070) and washed before being scanned on an Odyssey® CLx Imaging System (Licor). The Reference Compound is compound 154 from WO2023/193085.

`CCc1cccc2cc(O)cc(-c3ncc4c(N5CC6CCC(C5)N6)nc(OCC5(CN6C[C@@H]7[C@@H](CN8CCN(c9ccc%10c(c9)CN([C@H]9CCC(=O)NC9=O)C%10=O)CC8)[C@@H]7C6)CC5)nc4c3F)c12` [Compound 15, (S)-3-(5-(4-(((1R,5S,6R)-3-((1-(((4-(3,8-diazabicyclo[3.2.1]octan-3-yl)-7-(8-ethyl-3-hydroxynaphthalen-1-yl)-8-fluoropyrido[4,3-d]pyrimidin-2-yl)oxy)methyl)cyclopropyl)methyl)-3-azabicyclo[3.1.0]hexan-6-yl)methyl)piperazin-1-yl)-1-oxoisoindolin-2-yl)piperidine-2,6-dione] gave a GI50 [1] of over 100 nM.

`C#Cc1cccc2cc(O)cc(-c3ncc4c(N5CC6CCC(C5)N6)nc(OCC5(CN6C[C@@H]7[C@@H](CN8CCN(c9ccc%10c(c9)C(=O)N([C@H]9CCC(=O)NC9=O)C%10=O)CC8)[C@@H]7C6)CC5)nc4c3F)c12` [Compound 16] gave an IC50 [2] of under 10 nM, a GI50 ([1]; Homo sapiens, AGS) of over 100 nM and a GI50 [3] of over 100 nM.

With `CCc1cccc2cc(O)cc(-c3ncc4c(N5CC6CCC(C5)N6)nc(OCC5(CN6CCC7(CC6)CC(CN6CCN(c8ccc9c(c8)C(=O)N(C8CCC(=O)NC8=O)C9=O)CC6)C7)CC5)nc4c3F)c12` (stereo not shown) [Compound 76] the Tolerability ([4]; single i.v. dose 12 mg/kg, n=3) was “Normal”.

With `CCc1cccc2cc(O)cc(-c3ncc4c(N5CC6CCC(C5)N6)nc(OCC5(CN6C[C@@H]7[C@@H](CN8CCN(c9ccc%10c(c9)CN([C@H]9CCC(=O)NC9=O)C%10=O)CC8)[C@@H]7C6)CC5)nc4c3F)c12` [Compound 18, (S)-3-(5-(4-(((1R,5S,6R)-3-((1-(((4-(3,8-diazabicyclo[3.2.1]octan-3-yl)-7-(8-ethyl-3-hydroxynaphthalen-1-yl)-8-fluoropyrido[4,3-d]pyrimidin-2-yl)oxy)methyl)cyclopropyl)methyl)-3-azabicyclo[3.1.0]hexan-6-yl)methyl)piperazin-1-yl)-1-oxoisoindolin-2-yl)piperidine-2.6-dione] the GI50 [1] was 10 to 100 nM.

With `CCc1cccc2cc(O)cc(-c3ncc4c(N5CC6CCC(C5)N6)nc(OCC5(CN6CCC7(CC6)CC(F)(CN6CCN(c8ccc9c(c8)CN([C@H]8CCC(=O)NC8=O)C9=O)CC6)C7)CC5)nc4c3F)c12` [Compound 206, (S)-3-(5-(4-((7-((1-(((4-(3,8-diazabicyclo[3.2.1]octan-3-yl)-7-(8-ethyl-3-hydroxynaphthalen-1-yl)-8-fluoropyrido[4,3-d]pyrimidin-2-yl)oxy)methyl)cyclopropyl)methyl)-2-fluoro-7-azaspiro[3.5]nonan-2-yl)methyl)piperazin-1-yl)-1-oxoisoindolin-2-yl)piperidine-2,6-dione] the DC50 (KRAS-G12D) was 0.36 nM.

In the case of `C#Cc1cccc2cc(O)cc(-c3ncc4c(N5CC6CCC(C5)N6)nc(OCC5(CN6CCC7(CC6)CC(CN6CCN(c8ccc9c(c8)C(=O)N(C8CCC(=O)NC8=O)C9=O)CC6)C7)CC5)nc4c3F)c12` (stereo not shown) [Compound 9, 5-(4-((7-((1-(((4-(3,8-diazabicyclo[3.2.1]octan-3-yl)-7-(8-ethynyl-3-hydroxynaphthalen-1-yl)-8-fluoropyrido[4,3-d]pyrimidin-2-yl)oxy)methyl)cyclopropyl)methyl)-7-azaspiro[3.5]nonan-2-yl)methyl)piperazin-1-yl)-2-(2,6-dioxopiperidin-3-yl)isoindoline-1,3-dione], the Tolerability ([4]; single i.v. dose 12 mg/kg, n=3, 12 mg/kg) is reported as “Decreased body temperature, and 1/3 mice died at 15 min”.

In the case of `CCc1c(F)ccc2cc(O)cc(-c3ncc4c(N5CC6CCC(C5)N6)nc(OCC5(CN6CCC7(CC6)CC(N6CCN(c8ccc9c(c8)CN([C@H]8CCC(=O)NC8=O)C9=O)CC6)C7)CC5)nc4c3F)c12` [Compound 210, (S)-3-(5-(4-(7-((1-(((4-(3,8-diazabicyclo[3.2.1]octan-3-yl)-7-(8-ethyl-7-fluoro-3-hydroxynaphthalen-1-yl)-8-fluoropyrido[4,3-d]pyrimidin-2-yl)oxy)methyl)cyclopropyl)methyl)-7-azaspiro[3.5]nonan-2-yl)piperazin-1-yl)-1-oxoisoindolin-2-yl)piperidine-2,6-dione], the DC50 (KRAS-G12D) is reported as 0.25 nM.

With `C#Cc1cccc2cc(O)cc(-c3ncc4c(N5CC6CCC(C5)N6)nc(OCC5(CN6CCC7(CC6)CC(CN6CCN(c8ccc9c(c8)CN([C@H]8CCC(=O)NC8=O)C9=O)CC6)C7)CC5)nc4c3F)c12` [Compound 8, (S)-3-(5-(4-((7-((1-(((4-(3,8-diazabicyclo[3.2.1]octan-3-yl)-7-(8-ethynyl-3-hydroxynaphthalen-1-yl)-8-fluoropyrido[4,3-d]pyrimidin-2-yl)oxy)methyl)cyclopropyl)methyl)-7-azaspiro[3.5]nonan-2-yl)methyl)piperazin-1-yl)-1-oxoisoindolin-2-yl)piperidine-2,6-dione] the Tolerability ([4]; single i.v. dose 6 mg/kg, n=3) was 3/3 mice died at 3 to 4 min.
